According to publication PMC9079931 (RSC Advances, 2018):

Experiments:
[1] = cited from earlier work
[2] = system: human colon cancer cell line Caco-2; assay: In vitro cytotoxicity, MTT assay; assay type: cell-based; conditions: Caco-2, 24 h, 0.001–100 μg ml^−1
[3] = cited from earlier work; remark: listed apart in the source
[4] = cited from earlier work; remark: listed apart in the source

Row | SMILES | Oral acute toxicity dose [1] | Cell viability of Caco-2 cells versus concentration [2] | Solubility of DIC in water [3] [µg/mL] | Acute toxicity [4]
1 | OB(O)c1ccccc1 [phenylboronic acid] | higher than 900 mg kg^−1 body weight | – | – | –
2 | N#CC(c1ccc(Cl)cc1)c1c(Cl)cc(-n2ncc(=O)[nH]c2=O)cc1Cl (stereo not shown) [DIC, Diclazuril] | – | gradually decreased with the increase of free drug concentration | 0.69 | low acute toxicity
